Experimental data: patent US20250171463A1 (BIOGEN MA INC., priority 2022, published 2025)

Molecular target: T1, EBP (Homo sapiens, UniProt Q15125)
T1 construct: HEK293T cells were utilized as the source of EBP enzyme; endogenous in cells; host or cells: HEK293T
Experiment: EBP Functional Assay (EBP immunoaffinity LC-MS assay)
Format: biochemical
Details: EBP enzyme from HEK293T cells; 30 min with inhibitor, then zymosterol-d5, 37° C., 4 h; percent conversion to dehydrolathosterol-d5 by LC-APCI MRM MS
Protocol: The EBP immunoaffinity (IA) LC-MS assay measures the potency of small molecule inhibitors of EBP by quantifying their concentration-dependent changes in the enzyme's substrate and product using liquid chromatography atmospheric pressure chemical ionization multiple reaction monitoring mass spectrometry (LC-APCI MRM MS). HEK293T cells were utilized as the source of EBP enzyme. The enzyme was incubated with the small molecule inhibitors at variable concentrations for 30 min. Deuterated form of EBP substrate, zymosterol-d5 (Avanti Polar Lipids, Cat #700068P-1 mg), was then added and the plate was incubated at 37° C. for 4 h. Finally, the sterol isomers were extracted and injected to LC-APCI MRM MS. MRM transition used for the quantification for both zymosterol and […] (substrate and product of EBP enzymatic reaction, respectively) is 372.3-203.2, CE 30 and DP 80 in positive ion mode. Percent conversion of the zymosterol-d5 to dehydrolathosterol-d5 was used to derive IC50 curves. Tasin-1 (1′-[(4-Methoxyphenyl)sulfonyl]-4-methyl-1,4′-bipiperidine, CAS 792927-06-1) was used as the reference small molecule inhibitor.
Percent conversion versus the compound concentration data were fit to the following 4-parameter logistic model to generate IC50 curves: […]

T1 sequence (Q15125 whole entry): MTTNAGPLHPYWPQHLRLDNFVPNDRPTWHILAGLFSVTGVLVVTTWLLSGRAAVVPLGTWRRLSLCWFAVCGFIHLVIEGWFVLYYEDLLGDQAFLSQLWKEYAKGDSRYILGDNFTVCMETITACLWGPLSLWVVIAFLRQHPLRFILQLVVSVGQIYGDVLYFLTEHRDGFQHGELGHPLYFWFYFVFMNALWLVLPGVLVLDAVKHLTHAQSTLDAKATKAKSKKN

IC50	SMILES
< 100 nM	Cc1nc(C(F)(F)F)ccc1S(=O)(=O)N1CC2(CN(C(C)C3CCOC3)C2)C1 (mixture of isomers) [Example 130]
250 to 4000 nM	O=S(=O)(c1ccc(C(F)(F)F)nc1)N1CC2(CN(CC3CCOCC3)C2)C1 [Example 229, 2-((tetrahydro-2H-pyran-4-yl)methyl)-6-((6-(trifluoromethyl)pyridin-3-yl)sulfonyl)-2,6-diazaspiro[3.3]heptane]
< 100 nM	Cn1nc(C(F)(F)F)cc1S(=O)(=O)N1CC2(CN(CC3CC4(COC4)C3)C2)C1 [Example 115]
100 to 250 nM	CCc1nc(C(F)F)ccc1S(=O)(=O)N1CC2(CN(C3CC4(COC4)C3)C2)C1 [Example 206, 2-((6-(difluoromethyl)-2-ethylpyridin-3-yl)sulfonyl)-6-(2-oxaspiro[3.3]heptan-6-yl)-2,6-diazaspiro[3.3]heptane]
250 to 4000 nM	Cc1nc(Br)ccc1S(=O)(=O)N1CC2(CN(C3CCOCC3)C2)C1 [Example 67, 2-((6-bromo-2-methylpyridin-3-yl)sulfonyl)-6-(tetrahydro-2H-pyran-4-yl)-2,6-diazaspiro[3.3]heptane]
< 100 nM	Cc1nc(C(F)(F)F)ccc1S(=O)(=O)N1CC2(CN(C(C)C3COC3)C2)C1 (racemic) [Example 155, rac-2-((2-methyl-6-(trifluoromethyl)pyridin-3-yl)sulfonyl)-6-(1-(oxetan-3-yl)ethyl)-2,6-diazaspiro[3.3]heptane]
100 to 250 nM	Cc1cc(C(F)(F)F)nc(C)c1S(=O)(=O)N1CC2(CN(C3CC4(COC4)C3)C2)C1 [Example 101, 2-((2,4-dimethyl-6-(trifluoromethyl)pyridin-3-yl)sulfonyl)-6-(2-oxaspiro[3.3]heptan-6-yl)-2,6-diazaspiro[3.3]heptane]
250 to 4000 nM	Cc1nc(C(F)(F)F)ccc1S(=O)(=O)N1CC2(CN(CC3CCOC3)C2)C1 (stereo not shown) [Example 133]
100 to 250 nM	Cn1nc(C(F)(F)F)cc1S(=O)(=O)N1CC2(CN(CC3COC3)C2)C1 [Example 218, 2-((1-methyl-3-(trifluoromethyl)-1H-pyrazol-5-yl)sulfonyl)-6-(oxetan-3-ylmethyl)-2,6-diazaspiro[3.3]heptane]
< 100 nM	Cc1cc(OC(F)(F)F)ccc1S(=O)(=O)N1CC2(CN(C3CCOCC3)C2)C1 [Example 50]
< 100 nM	Cc1nc(C(C)(F)F)ccc1S(=O)(=O)N1CC2(CN(CC3(C)COC3)C2)C1 [Example 89]
250 to 4000 nM	Cc1nc(C(C)(F)F)ccc1S(=O)(=O)N1CC2(CN(C(C)C3CCOCC3)C2)C1 (stereo not shown) [Example 82]
< 100 nM	Cc1nc(C(C)(C)F)ccc1S(=O)(=O)N1CC2(CN(C3CCOCC3)C2)C1 [Example 93, 2-((6-(2-fluoropropan-2-yl)-2-methylpyridin-3-yl)sulfonyl)-6-(tetrahydro-2H-pyran-4-yl)-2,6-diazaspiro[3.3]heptane]
100 to 250 nM	Cc1ccc(S(=O)(=O)N2CC3(CN(CC4CCOCC4)C3)C2)c(C(F)(F)F)n1 [Example 106, 2-((6-methyl-2-(trifluoromethyl)pyridin-3-yl)sulfonyl)-6-((tetrahydro-2H-pyran-4-yl)methyl)-2,6-diazaspiro[3.3]heptane]
250 to 4000 nM	Cc1nc(C(F)(F)F)ccc1S(=O)(=O)N1CC2(CN(C3CC4(CCO4)C3)C2)C1 (racemic) [Example 69, rac-2-((2-methyl-6-(trifluoromethyl)pyridin-3-yl)sulfonyl)-6-(1-oxaspiro[3.3]heptan-6-yl)-2,6-diazaspiro[3.3]heptane]
250 to 4000 nM	O=S(=O)(c1cnc(C(F)(F)F)cc1C1CC1)N1CC2(CN(C3CC4(COC4)C3)C2)C1 [Example 121, 2-((4-cyclopropyl-6-(trifluoromethyl)pyridin-3-yl)sulfonyl)-6-(2-oxaspiro[3.3]heptan-6-yl)-2,6-diazaspiro[3.3]heptane]
< 100 nM	CCc1nc(C(F)F)ccc1S(=O)(=O)N1CC2(CN(C3CCOCC3)C2)C1 [Example 205, 2-((6-(difluoromethyl)-2-ethylpyridin-3-yl)sulfonyl)-6-(tetrahydro-2H-pyran-4-yl)-2,6-diazaspiro[3.3]heptane]
100 to 250 nM	Cc1nc(C(F)(F)F)ccc1S(=O)(=O)N1CC2(CN(C(C)C3(C)CCOCC3)C2)C1 (stereo not shown) [Example 131]
< 100 nM	Cc1nc(C(F)(F)F)ccc1S(=O)(=O)N1CC2(CN(C3CCOCC3C)C2)C1 (stereo not shown) [Example 145]
< 100 nM	O=S(=O)(c1ccc(C(F)(F)F)nc1C1CC1)N1CC2(CN(CC3CCOCC3)C2)C1 [Example 190, 2-((2-cyclopropyl-6-(trifluoromethyl)pyridin-3-yl)sulfonyl)-6-((tetrahydro-2H-pyran-4-yl)methyl)-2,6-diazaspiro[3.3]heptane]
100 to 250 nM	Cc1nc(C(C)(F)F)ccc1S(=O)(=O)N1CC2(CN(C(C)C3COC3)C2)C1 (stereo not shown) [Example 88]

Further lines, the molecule ahead of its results:

SMILES	IC50
O=S(=O)(c1c(F)cc(OC(F)F)cc1F)N1CC2(CN(CC3CCOCC3)C2)C1 [Example 225, 2-((4-(difluoromethoxy)-2,6-difluorophenyl)sulfonyl)-6-((tetrahydro-2H-pyran-4-yl)methyl)-2,6-diazaspiro[3.3]heptane]	250 to 4000 nM
Cn1nc(C2CC2)cc1S(=O)(=O)N1CC2(CN(CC3CCOCC3)C2)C1 [Example 219, 2-((3-cyclopropyl-1-methyl-1H-pyrazol-5-yl)sulfonyl)-6-((tetrahydro-2H-pyran-4-yl)methyl)-2,6-diazaspiro[3.3]heptane]	100 to 250 nM
Cc1cc(C(F)(F)F)ncc1S(=O)(=O)N1CCC2(CCN(C3CCOCC3)C2)CC1 [Example 38]	< 100 nM
Cc1ccc(S(=O)(=O)N2CCC3(CC2)CN(C2CCOCC2)C3)c(C)c1 [Example 31, 7-((2,4-Dimethylphenyl)sulfonyl)-2-(tetrahydro-2H-pyran-4-yl)-2,7-diazaspiro[3.5]nonane]	250 to 4000 nM
O=S(=O)(c1ccc(OC(F)F)cc1)N1CCC2(CC1)CN(C1CCOCC1)CCO2 [Example 30, 9-((4-(Difluoromethoxy)phenyl)sulfonyl)-4-(tetrahydro-2H-pyran-4-yl)-1-oxa-4,9-diazaspiro[5.5]undecane]	100 to 250 nM
COc1cc(S(=O)(=O)N2CC3(CN(C4CCOCC4)C3)C2)n(C)n1 [Example 97, 2-((3-methoxy-1-methyl-1H-pyrazol-5-yl)sulfonyl)-6-(tetrahydro-2H-pyran-4-yl)-2,6-diazaspiro[3.3]heptane]	250 to 4000 nM
O=S(=O)(c1cnc(C(F)(F)F)cc1C1CC1)N1CC2(CN(CC3CCOCC3)C2)C1 [Example 122, 2-((4-cyclopropyl-6-(trifluoromethyl)pyridin-3-yl)sulfonyl)-6-((tetrahydro-2H-pyran-4-yl)methyl)-2,6-diazaspiro[3.3]heptane]	< 100 nM
Cc1ccc(S(=O)(=O)N2CC3(CN(C4CCOCC4)C3)C2)c(C)c1 [Example 44, 2-((2,4-Dimethylphenyl)sulfonyl)-6-(tetrahydro-2H-pyran-4-yl)-2,6-diazaspiro[3.3]heptane]	< 100 nM
COc1ncc(C)cc1S(=O)(=O)N1CCOC2(CCN(C3CCOCC3)C2)C1 (stereo not shown) [Example 16, 9-((2-Methoxy-5-methylpyridin-3-yl)sulfonyl)-2-(tetrahydro-2H-pyran-4-yl)-6-oxa-2,9-diazaspiro[4.5]decane]	250 to 4000 nM
O=S(=O)(c1ccc(OC(F)F)cc1)N1CCO[C@@]2(CCN([C@@H]3CCCOC3)C2)C1 (racemic) [Example 9, (±)—(R)-9-((4-(Difluoromethoxy)phenyl)sulfonyl)-2-((R)-tetrahydro-2H-pyran-3-yl)-6-oxa-2,9-diazaspiro[4.5]decane]	250 to 4000 nM
O=S(=O)(c1cc(C(F)(F)F)nn1CC1CC1)N1CC2(CN(C3CCOCC3)C2)C1 [Example 65, 2-((1-(cyclopropylmethyl)-3-(trifluoromethyl)-1H-pyrazol-5-yl)sulfonyl)-6-(tetrahydro-2H-pyran-4-yl)-2,6-diazaspiro[3.3]heptane]	250 to 4000 nM
Cc1cc(OC(F)(F)F)ccc1S(=O)(=O)N1CCC2(CCN(C3CCOCC3)C2)CC1 [Example 41]	< 100 nM
CCc1nc(C(F)F)ccc1S(=O)(=O)N1CC2(CN(C3CCC(C)(O)CC3)C2)C1 (stereo not shown) [Example 208, (1s,4s)-4-(6-((6-(difluoromethyl)-2-ethylpyridin-3-yl)sulfonyl)-2,6-diazaspiro[3.3]heptan-2-yl)-1-methylcyclohexan-1-ol]	100 to 250 nM
CC(C)c1cc(S(=O)(=O)N2CC3(CN(C4CCOCC4)C3)C2)n(C)n1 [Example 189, 2-((3-isopropyl-1-methyl-1H-pyrazol-5-yl)sulfonyl)-6-(tetrahydro-2H-pyran-4-yl)-2,6-diazaspiro[3.3]heptane]	< 100 nM
CC1(C)CC(N2CCC3(CC2)CN(S(=O)(=O)c2ccc(OC(F)F)cc2)CCO3)CCO1 (stereo not shown) [Example 21, 4-((4-(Difluoromethoxy)phenyl)sulfonyl)-9-(2,2-dimethyltetrahydro-2H-pyran-4-yl)-1-oxa-4,9-diazaspiro[5.5]undecane]	250 to 4000 nM
COc1cc(C)c(S(=O)(=O)N2CC3(CN(C4CCOCC4)C3)C2)cn1 [Example 168, 2-((6-methoxy-4-methylpyridin-3-yl)sulfonyl)-6-(tetrahydro-2H-pyran-4-yl)-2,6-diazaspiro[3.3]heptane]	250 to 4000 nM
